One may read the EC50 as the concentration that produces a half-maximal response. The term IC50 denotes the concentration at which inhibition is half-maximal.

The values below come from US9365541B2, “Compounds for use in the treatment of parasitic diseases” (IRBM—SCIENCE PARK S.P.A., priority 2012, dated 2016).

The test system of experiment [1] is histone 4 acetylated lysine 8 (H4K8Ac). Kind of experiment: Histone hyperacetylation assay (Western blot H4K8Ac) in HeLa cells. The settings on record: data not shown. The experiment is classed as cell-based, human. The method, then: FIG. 2. Hyperacetylation of HeLa's histones. HeLa cells were incubated in vitro for 14-16 hours with increasing concentrations (49 nM to 25 uM) of compound (S)-N-(7-(methylamino)-1-(5-(naphthalen-2-yl)-1H-imidazol-2-yl)-7-oxoheptyl)quinuclidine-4-carboxamide (Table 2, entry 126) or were treated with vehicle (0.01% DMSO). Beta-actin was used as loading control (see materials and methods). H4K8Ac: antibody directed against acetylated lysine 8 of histone 4.
After result normalization using positive and negative controls, compound potency is determined by fitting the following equation: % inh=Ymin+(Ymax−Ymin)/(1+(X/EC50)^slope)) Where: • Ymin=minimum percentage effect • Ymax=maximum percentage effect • EC50=the concentration of the compound at which 50% effect is reached • Slope=the slope of the curve calculated at the EC50 Histone Hyperacetylation and Immunodetection of Altered Histone Modifications Assay
The effect of test compounds on histone acetylation status was determined by incubating Plasmodium falciparum 3D7 infected erythrocytes or HeLa cells with different concentrations of drugs or vehicle (0.01% DMSO) alone. Infected erythrocytes were collected at 14-16 hours post treatment and lysed in saponin (0.15%). […] Supernatants were analyzed by 12% SDS-PAGE and transferred onto PVDF (Immun-Blot PVDF Membrane for Protein Blotting, BIORAD, Cat: No 162-0177) membranes. […]
(In general: In western blotting, separated proteins are transferred to a membrane and probed.)

For experiment [2] the test system is unchanged. Kind of experiment: Histone hyperacetylation assay (Western blot H4K8Ac) in P. falciparum 3D7 infected erythrocytes. The settings on record: Plasmodium falciparum, Erythrocyte, 20 nM to 10 uM, 14-16 hours, read-out: estimated EC50 in the hyperacetylation assay. The format is cell-based. As for the experimental part:
FIG. 1. Hyperacetylation of P. falciparum histones. Plasmodium falciparum 3D7 infected erythrocytes (5-7% parasitemia) were cultured for 14-16 hours in vitro with increasing concentrations (6 nM to 3 uM) of (A): compound (S)-N-(7-(methylamino)-1-(5-(naphthalen-2-yl)-1H-imidazol-2-yl)-7-oxoheptyl)quinuclidine-4-carboxamide (Table 2, entry 126) or with vehicle (0.01% DMSO); increasing concentrations (20 nM to 10 uM) of (B): compound (S)-N-(1-(5-(4-(1H-pyrazol-5-yl)phenyl)-1H-imidazol-2-yl)-7-(methylamino)-7-oxoheptyl)thiazole-5-carboxamide (Table 2, entry 221; Example 4, D9). Beta-actin was used as loading control (see materials and methods). H4K8Ac: antibody directed against acetylated lysine 8 of histone 4. […]
The effect of test compounds on histone acetylation status was determined by incubating Plasmodium falciparum 3D7 infected erythrocytes or HeLa cells with different concentrations of drugs or vehicle (0.01% DMSO) alone. […] Supernatants were analyzed by 12% SDS-PAGE and transferred onto PVDF (Immun-Blot PVDF Membrane for Protein Blotting, BIORAD, Cat: No 162-0177) membranes. […]

Experiment [3] has as its system Plasmodium falciparum 3D7. Briefly: P. falciparum growth inhibition assay (Pf-LDH). The format is cell-based. The conditions noted are these: for Selectivity Index: HDAC HeLa Cell Based IC50 (μM)/Pf-LDH EC50 (μM); for EC50: Plasmodium falciparum, Erythrocyte, P. falciparum 3D7 infected erythrocytes, 72 h incubation, PfLDH readout. The procedure, abridged: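 Compounds were tested against 72 h cultures of the 3D7 strain (0.25% parasitemia, 2% hematocrit, 37° C, low-oxygen gas). Parasite growth was quantified as lactate dehydrogenase activity via NBT reduction, absorbance 650 nm, after freezing and thawing.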

For a further experiment, the target named is T1, human HDAC1 (Homo sapiens, UniProt Q13547).
T1 construct: made in house; host or cells: HeLa (ATCC CCL-2), mammalian cells
Briefly: Homo sapiens HDAC1 inhibition assay (Fluor-de-Lys, enzymatic). The experiment is classed as biochemical. The conditions noted are these: human HDAC enzymatic assay; read-out: hHDAC IC50. The procedure, abridged: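 Fluorogenic deacetylation read-out: trypsin developer, supplemented with 2 μM final TSA as stop, releases fluorophore from deacetylated substrate.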

The subject of experiment [4] is HDAC1 (deacetylase activity inside HeLa cells). Kind of experiment: Cell based HDAC1 inhibition (HDAC HeLa Cell based assay). On the set-up: species or system human. As for the experimental part: After result normalization using positive and negative controls, compound potency is determined by fitting the following equation: % inh=Ymin+(Ymax−Ymin)/(1+(X/IC50)^slope)) Where: • Ymin=minimum percentage inhibition • Ymax=maximum percentage inhibition • IC50=the concentration of the compound at which 50% inhibition is reached • Slope=the slope of the curve calculated at the IC50 Cell Based HDAC1 Inhibition Overview:
The aim of the assay is to evaluate the inhibition of the deacetylase activity inside the cells. To such goal a membrane permeable substrate is added to HeLa cells. After the incubation period, cells are lysed and the deacetylated substrate is evaluated using the same principles previously described for the human HDAC1 assay.
HeLa cells (HeLa, cervix adnocarcinoma, ATCC® Number: CCL-2™) frozen stock are derived from cell cultured in DMEM, glutamine, penicilline, streptomicine and 10% fetal bovine serum (FBS). Stock are frozen in 90% FBD and 10% DMSO.
b) HDAC Substrate Buffer System
Reagents of the HDAC Fluorescent Activity Assay are purchased from Enzo Life Sciences (http://www.enzolifesciences.com/BML-AK500/fluor-de-lys-hdac-fluorometric-activity-assay-kit/) and feature the Fluor-de-Lys™ Substrate/Developer System. The reagents include the proprietary fluorescent substrate as a 50 mM stock solution (KI-104), and the Developer Concentrate (KI-105). Deacetylation of the lysine residue of the Fluor-de-Lys substrate is quantified by measuring the fluorescence (ex 360 nm, em 460 nm) after addition of the proprietary developer.
TSA is provided as a 10 mM stock solution in 100% dimethylsulfoxide (DMSO).
Test compounds should be prepared in 100% DMSO and transferred to the assay by a nano volume dispenser to reach the appropriate concentration and the appropriate DMSO concentration (0.25%) in the reaction.
GIBCO Dulbecco's Mod Eagle Medium without Phenol Red (cat n° 11880) Completed with 10% FCS—fetal bovine serum—, 1% Penicillin-Streptomycin (10 mg/ml) and 1% L-Glutamine 200 mM (100×)
f) Diluted Substrate Solution
The commercial 50 mM Fluor-de-Lys substrate (KI-104) is diluted to 400 uM in Assay Buffer prior to each use.
g) Diluted Stop-Lysis-Developer Solution
The reaction is performed in 384-well microplate in a final volume of 20 μl/well+10 μl/well of Stop-Lysis-Developer Mix, as following: • seed 10000 HeLa cells/well, from the frozen aliquots, in 15 μl in assay medium and let recover overnight; • transfer compounds to the assay by nano-volume transfer machine in order to reach the desired assay concentration and a final DMSO concentration of 0.25%; • pre-incubate compounds on cells for 30 min; • start the reaction by adding 5 μl of the Diluted Substrate Solution; • stop the reaction after 4 h incubation at 37° C. 5% CO2 by adding 10 μl of Diluted Stop-Lysis-Developer Solution; • incubate 20 min at 37° C.; • after 10 min at RT measure the fluorescence at excitation 360 nm and emission 460 nm
Negative controls (0% Effect) are produced by addition of DMSO to the proper wells.
Positive controls (100% Effect) are produced by addition of 4 μM TSA to the proper wells.
After result normalization using positive and negative controls, compound potency is determined by fitting the following equation: % inh=Ymin+(Ymax−Ymin)/(1+(X/EC50)^slope)) Where: • Ymin=minimum percentage effect • Ymax=maximum percentage effect • EC50=the concentration of the compound at which 50% effect is reached • Slope=the slope of the curve calculated at the EC50 In Vitro Culture of P. falciparum Parasites

T1 sequence (Q13547 whole entry): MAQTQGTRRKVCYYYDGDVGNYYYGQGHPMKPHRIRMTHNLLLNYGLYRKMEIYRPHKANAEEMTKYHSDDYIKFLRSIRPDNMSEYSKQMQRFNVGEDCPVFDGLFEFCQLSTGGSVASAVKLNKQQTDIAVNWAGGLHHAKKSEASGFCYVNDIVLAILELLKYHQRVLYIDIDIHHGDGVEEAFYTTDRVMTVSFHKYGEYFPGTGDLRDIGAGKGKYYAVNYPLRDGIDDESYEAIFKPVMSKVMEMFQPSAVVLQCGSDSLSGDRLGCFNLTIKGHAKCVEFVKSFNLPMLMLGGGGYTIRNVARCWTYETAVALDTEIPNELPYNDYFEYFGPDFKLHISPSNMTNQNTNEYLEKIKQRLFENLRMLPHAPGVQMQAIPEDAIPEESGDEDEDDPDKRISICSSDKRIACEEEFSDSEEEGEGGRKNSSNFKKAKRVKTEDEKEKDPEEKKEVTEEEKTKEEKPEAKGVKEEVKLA

For the molecule `CNC(=O)CCCCC[C@H](NC(=O)c1cncs1)c1ncc(-c2ccc(-c3ccn[nH]3)cc2)[nH]1` [D9, (S)-N-(1-(5-(4-(1H-pyrazol-5-yl)phenyl)-1H-imidazol-2-yl)-7-(methylamino)-7-oxoheptyl)thiazole-5-carboxamide], the “concentration up to which no change in histone acetylation was observed in HeLa cells” value in experiment [1] was > 10 µM. Also, the EC50 in experiment [2] is 0.35 µM.

`CNC(=O)CCCCC[C@H](NC(=O)c1cnn(C(C)C)c1)c1ncc(-c2ccc3cc(OC)ncc3c2)[nH]1` [compound 227, (S)-1-isopropyl-N-(1-(5-(3-methoxyisoquinolin-7-yl)-1H-imidazol-2-yl)-7-(methylamino)-7-oxoheptyl)-1H-pyrazole-4-carboxamide]: in experiment [3], the “Selectivity Index” value was 23.5 and the EC50 is < 1 µM. Also, the concentration for half-maximal inhibition (IC50) at human HDAC1 is < 1 µM. The same molecule had an IC50 in experiment [4] of 1 to 5 µM.

Take `CNC(=O)CCCCC[C@H](NC(=O)c1cncs1)c1ncc(-c2ccc(-c3cnn(C)c3)cc2)[nH]1` [compound 228, (S)-N-(1-(5-(4-(1-methyl-1H-pyrazol-4-yl)phenyl)-1H-imidazol-2-yl)-7-(methylamino)-7-oxoheptyl)thiazole-5-carboxamide]: in experiment [3], the “Selectivity Index” value is on record as 6.7 and the concentration giving a half-maximal response (EC50) is 1 to 5 µM. Further, the half-inhibitory concentration (IC50) on human HDAC1 was > 5 µM. In addition, the IC50 in experiment [4] is > 5 µM.

In the case of `CNC(=O)CCCCC[C@H](NC(=O)c1cncs1)c1ncc(-c2ccc(-c3ccnn3C)cc2)[nH]1` [compound 229, (S)-N-(1-(5-(4-(1-methyl-1H-pyrazol-5-yl)phenyl)-1H-imidazol-2-yl)-7-(methylamino)-7-oxoheptyl)thiazole-5-carboxamide], the “Selectivity Index” value in experiment [3] is reported as 5.6. This molecule also came in with a concentration giving a half-maximal response (EC50) in experiment [3] of 1 to 5 µM. Also, the IC50 (at human HDAC1; in experiment [4]) was > 5 µM throughout.

Consider `CNC(=O)CCCCC[C@H](NC(=O)c1cncs1)c1ncc(-c2ccc(-c3cncs3)cc2)[nH]1` [compound 230, (S)-N-(7-(methylamino)-7-oxo-1-(5-(4-(thiazol-5-yl)phenyl)-1H-imidazol-2-yl)heptyl)thiazole-5-carboxamide], for which, in experiment [3], the “Selectivity Index” value was 3.6. In experiment [3], this molecule came in with an EC50 of 1 to 5 µM. The 50% inhibitory concentration (IC50) is 1 to 5 µM at human HDAC1 and > 5 µM in experiment [4].

`CNC(=O)CCCCC[C@H](NC(=O)c1cncs1)c1ncc(-c2ccc(-c3nccs3)cc2)[nH]1` [compound 231, (S)-N-(7-(methylamino)-7-oxo-1-(5-(4-(thiazol-2-yl)phenyl)-1H-imidazol-2-yl)heptyl)thiazole-5-carboxamide]: in experiment [3], the “Selectivity Index” value stood at 10.6. Besides, the EC50 in experiment [3] was < 1 µM. Moreover, the half-inhibitory concentration (IC50) is 1 to 5 µM on human HDAC1 and > 5 µM in experiment [4].

As for `CNC(=O)CCCCC[C@H](NC(=O)c1cncs1)c1ncc(-c2ccc(-c3cscn3)cc2)[nH]1` [compound 232, (S)-N-(7-(methylamino)-7-oxo-1-(5-(4-(thiazol-4-yl)phenyl)-1H-imidazol-2-yl)heptyl)thiazole-5-carboxamide], in experiment [3], the “Selectivity Index” value is reported as 14.2 and the concentration giving a half-maximal response (EC50) was < 1 µM. Also, the IC50 at human HDAC1 fell in the range of 1 to 5 µM. In experiment [4], the IC50 was > 5 µM.
